The test system of assay [1] is MM473. Kind of assay: Induction of cell cycle arrest in human MM473-Luc cells assessed as accumulation of cells at S phase at 1.4 uM after 72 hrs by flow cytometry (reference value: 13.7%). The class given is functional. Background: In flow cytometry, cells or beads pass a laser one at a time.
For assay [2], the system named is NCI-H460. Kind of assay: Induction of cell cycle arrest in human NCI-H460 cells assessed as accumulation of cells at S phase at 0.26 uM after 72 hrs by flow cytometry (reference value: 32.1%). The class given is functional.
In assay [3] the target is T1, Histone deacetylase 11 (Homo sapiens) (UniProt Q96DB2).
T1 sequence (whole entry): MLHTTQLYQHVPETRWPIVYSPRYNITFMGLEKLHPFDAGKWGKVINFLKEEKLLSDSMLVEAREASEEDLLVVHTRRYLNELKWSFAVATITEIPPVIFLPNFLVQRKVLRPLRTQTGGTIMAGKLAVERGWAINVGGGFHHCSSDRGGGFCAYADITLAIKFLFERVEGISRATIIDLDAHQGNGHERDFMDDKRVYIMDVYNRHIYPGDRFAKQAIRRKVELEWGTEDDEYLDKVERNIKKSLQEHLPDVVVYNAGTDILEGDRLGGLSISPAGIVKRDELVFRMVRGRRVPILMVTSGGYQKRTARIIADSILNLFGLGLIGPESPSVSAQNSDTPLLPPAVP
Kind of assay: Inhibition of HDAC11 in human NCI-H460 cells at 0.1 to 0.4 uM assessed as induction of p53 acetylation and measured by Western blot analysis. Conditions: dose 0.1-0.4 µM. It counts as cell-based. (A western blot detects proteins with antibodies after separation by electrophoresis.)

Assay [4] relates to A2780. In words: Induction of cell cycle arrest in human A2780 cells assessed as accumulation of cells at S phase at 0.95 uM after 72 hrs by flow cytometry (reference value: 36.3%). The class given is functional.
The subject of assay [5] is NCI-H460. Kind of assay: Antiproliferative activity against human NCI-H460 cells at 0.1 to 0.4 uM assessed as reduction in p-ERK1/2 level and measured by Western blot analysis. It counts as functional, cell-based. Conditions: dose 0.1-0.4 µM.
Assay [6] has as its system NCI-H460. In words: Induction of cell cycle arrest in human NCI-H460 cells assessed as accumulation of cells at sub-G1 phase at 0.26 uM after 72 hrs by flow cytometry (reference value: 1.1%). It counts as functional.
The target of assay [7] is T2, DNA polymerase alpha catalytic subunit (Homo sapiens) (UniProt P09884).
T2 sequence (whole entry): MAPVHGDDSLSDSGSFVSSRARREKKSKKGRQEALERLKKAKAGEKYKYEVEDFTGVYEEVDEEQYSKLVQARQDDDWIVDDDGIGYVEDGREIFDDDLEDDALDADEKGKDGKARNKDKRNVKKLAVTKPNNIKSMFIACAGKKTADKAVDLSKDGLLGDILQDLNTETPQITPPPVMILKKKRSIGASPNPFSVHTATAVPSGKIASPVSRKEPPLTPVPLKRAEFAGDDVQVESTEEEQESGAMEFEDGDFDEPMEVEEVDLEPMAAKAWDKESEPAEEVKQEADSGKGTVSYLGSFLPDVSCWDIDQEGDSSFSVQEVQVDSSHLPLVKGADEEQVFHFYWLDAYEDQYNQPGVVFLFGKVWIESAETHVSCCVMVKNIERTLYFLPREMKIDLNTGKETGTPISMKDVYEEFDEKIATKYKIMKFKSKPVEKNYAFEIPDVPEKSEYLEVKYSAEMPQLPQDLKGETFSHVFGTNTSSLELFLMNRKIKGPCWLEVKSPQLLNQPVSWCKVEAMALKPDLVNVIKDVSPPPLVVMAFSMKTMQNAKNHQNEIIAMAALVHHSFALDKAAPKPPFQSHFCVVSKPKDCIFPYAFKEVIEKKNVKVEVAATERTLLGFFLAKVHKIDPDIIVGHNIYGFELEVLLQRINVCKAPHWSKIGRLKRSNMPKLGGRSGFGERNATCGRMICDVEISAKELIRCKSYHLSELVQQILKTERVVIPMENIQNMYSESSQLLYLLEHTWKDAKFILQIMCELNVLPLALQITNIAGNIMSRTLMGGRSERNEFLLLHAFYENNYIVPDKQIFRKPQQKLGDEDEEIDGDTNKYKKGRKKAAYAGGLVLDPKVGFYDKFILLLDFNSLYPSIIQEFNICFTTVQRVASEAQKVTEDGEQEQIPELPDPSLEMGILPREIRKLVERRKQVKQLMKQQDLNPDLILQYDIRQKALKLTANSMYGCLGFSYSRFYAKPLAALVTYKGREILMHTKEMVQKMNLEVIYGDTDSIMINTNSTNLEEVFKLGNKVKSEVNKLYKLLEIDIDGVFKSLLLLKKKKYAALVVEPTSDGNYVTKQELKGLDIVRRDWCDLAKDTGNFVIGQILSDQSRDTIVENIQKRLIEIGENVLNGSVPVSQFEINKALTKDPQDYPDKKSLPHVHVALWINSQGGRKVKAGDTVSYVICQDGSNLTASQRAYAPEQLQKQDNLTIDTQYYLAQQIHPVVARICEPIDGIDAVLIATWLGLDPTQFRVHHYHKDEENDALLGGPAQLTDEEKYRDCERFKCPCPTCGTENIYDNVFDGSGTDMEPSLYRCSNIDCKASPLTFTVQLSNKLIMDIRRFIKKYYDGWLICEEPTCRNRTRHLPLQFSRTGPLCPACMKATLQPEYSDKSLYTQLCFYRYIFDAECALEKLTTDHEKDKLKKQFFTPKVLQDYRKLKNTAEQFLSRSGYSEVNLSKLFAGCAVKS
Kind of assay: Inhibition of recombinant POLA1 (unknown origin) using 5-Fluorescein-rGrGrArArArGrGrArCrGrArArArCrA-3 as substrate at 10 to 50 uM and measured by primer extension assay. Conditions: dose 10-50 µM.

The subject of assay [8] is NCI-H460. In words: Induction of DNA damage in human NCI-H460 cells at 0.1 to 0.4 uM assessed as increase in p-H2AX levels and measured by Western blot analysis. It counts as functional, cell-based. Conditions: dose 0.1-0.4 µM.
Assay [9] relates to NCI-H460. Kind of assay: Antiproliferative activity against human NCI-H460 cells at 0.1 to 0.4 uM assessed as reduction in PIN1 level and measured by Western blot analysis. It counts as functional, cell-based. Conditions: dose 0.1-0.4 µM.
Assay [10] deals with MDA-MB-231. In words: Antiproliferative activity against human MDA-MB-231 cells incubated for 24 hrs followed by incubating in drug-free medium for 48 hrs and measured by SRB assay. It counts as functional, cell-based. Background: Sulforhodamine B stains cellular protein and so reports cell mass.
Assay [11] is described as follows: Antitumor activity against human H460-R9A cells xenografted in mouse assessed as tumor growth inhibition at 50 mg/kg, po qd administered 5 times a week for 3 to 4 weeks in combination with cisplatin at 4 mg/kg, iv administered every 7 days for 4 weeks. The class given is functional. Conditions: time 3-4 weeks, read-out: TGI.
Assay [12] has as its system MM473. In words: Induction of cell cycle arrest in human MM473-Luc cells assessed as accumulation of cells at S phase at 1.2 uM after 72 hrs by flow cytometry (reference value: 13.7%). It counts as functional.
In assay [13] the test system is NCI-H460. In words: Induction of cell cycle arrest in human NCI-H460 cells assessed as accumulation of cells at G0/1 phase at 0.25 uM after 72 hrs by flow cytometry (reference value: 46.8%). It counts as functional.
Assay [14] is described as follows: Induction of cell cycle arrest in human H460-R9A cells assessed as accumulation of cells at sub-G1 phase at 2.2 uM after 72 hrs by flow cytometry (reference value: 1.5%). It counts as functional.

SMILES strings stand for the structures. Calls of active or inactive are those of the source. The calls are words filed in the database; no cut-off is given here.

From ChEMBL document CHEMBL5154648, “Antitumor activity of novel POLA1-HDAC11 dual inhibitors” (Eur J Med Chem, 2022) come the findings set out here.

With `CC(Oc1ccc(-c2ccc(C=CC(=O)O)cc2)cc1C12CC3CC(CC(C3)C1)C2)C(=O)NO` (stereo not given), the Activity in [1] amounted to 81.6%; in assay [2] it was 81.4%; in assay [4], 86.2%; in assay [6], 13.2%. Also, the inhibition entry in [3] and in assay [7] was “Active” throughout. The result in assay [5], in [8] and in assay [9] was Active.

By IC50 is commonly meant the concentration that inhibits the measured activity by half. The low end stands for higher potency, the high end for lower potency. Regarding `O=C(O)C=Cc1ccc(-c2ccc(OCC(=O)NO)c(C34CC5CC(CC(C5)C3)C4)c2)cc1`, in assay [10], inhibition was half-maximal at 1900 nM (IC50). The inhibition in vivo at 50 mg/kg in assay [11] came out at 78%. For the same compound, the inhibition result in assay [3] and in assay [7] was “Active” in each case. Moreover, the outcome in assay [5], in [8] and in assay [9] was Active. The figures for the Activity in assay [12] and in assay [13] were 62.9% and 16.3%, respectively.

For the compound `O=C(O)C=Cc1ccc(-c2ccc(O)c(C34CC5CC(CC(C5)C3)C4)c2)cc1`, the IC50 in [10] was 1100 nM. Further, in [14], the Activity is listed as 26.7%.
